doi:10.1101/2021.02.21.432137v1 (biorxiv, 2021)

Tests used:
Conditions in all cases: binder
JAK3 = target: T1, JAK3 (Homo sapiens, UniProt P52333)
T1 sequence (P52333 1-1124): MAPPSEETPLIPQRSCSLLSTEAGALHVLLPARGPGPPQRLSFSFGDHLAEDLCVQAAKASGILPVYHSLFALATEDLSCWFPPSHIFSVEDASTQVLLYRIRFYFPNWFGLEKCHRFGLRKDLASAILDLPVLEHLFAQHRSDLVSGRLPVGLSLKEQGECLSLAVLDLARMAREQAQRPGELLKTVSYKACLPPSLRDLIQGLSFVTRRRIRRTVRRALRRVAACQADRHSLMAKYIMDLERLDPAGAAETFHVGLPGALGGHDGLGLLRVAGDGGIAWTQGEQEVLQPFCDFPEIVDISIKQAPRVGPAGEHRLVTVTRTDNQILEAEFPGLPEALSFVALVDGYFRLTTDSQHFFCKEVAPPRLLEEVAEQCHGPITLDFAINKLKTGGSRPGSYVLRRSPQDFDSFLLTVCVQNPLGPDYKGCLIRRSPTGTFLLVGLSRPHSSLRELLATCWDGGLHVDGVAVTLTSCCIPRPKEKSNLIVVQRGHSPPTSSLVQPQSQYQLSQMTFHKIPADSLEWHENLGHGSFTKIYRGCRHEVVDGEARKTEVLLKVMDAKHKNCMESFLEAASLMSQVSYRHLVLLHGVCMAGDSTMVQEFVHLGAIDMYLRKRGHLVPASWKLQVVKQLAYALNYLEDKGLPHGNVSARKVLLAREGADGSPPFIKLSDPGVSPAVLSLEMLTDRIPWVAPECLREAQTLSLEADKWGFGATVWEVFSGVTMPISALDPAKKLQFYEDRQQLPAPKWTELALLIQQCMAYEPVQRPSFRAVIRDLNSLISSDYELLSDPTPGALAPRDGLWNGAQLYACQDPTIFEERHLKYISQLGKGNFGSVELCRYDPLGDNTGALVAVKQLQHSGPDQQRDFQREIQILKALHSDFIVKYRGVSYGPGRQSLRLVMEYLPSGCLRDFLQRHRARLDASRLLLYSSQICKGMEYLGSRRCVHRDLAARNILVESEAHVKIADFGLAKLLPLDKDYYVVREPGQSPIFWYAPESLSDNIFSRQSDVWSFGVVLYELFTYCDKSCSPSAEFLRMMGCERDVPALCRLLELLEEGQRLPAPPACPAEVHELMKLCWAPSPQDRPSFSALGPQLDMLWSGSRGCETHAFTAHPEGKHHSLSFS

STK3 (MST2) = target: T2, STK3 (MST2) (Homo sapiens, UniProt Q13188)
T2 sequence (Q13188 1-491): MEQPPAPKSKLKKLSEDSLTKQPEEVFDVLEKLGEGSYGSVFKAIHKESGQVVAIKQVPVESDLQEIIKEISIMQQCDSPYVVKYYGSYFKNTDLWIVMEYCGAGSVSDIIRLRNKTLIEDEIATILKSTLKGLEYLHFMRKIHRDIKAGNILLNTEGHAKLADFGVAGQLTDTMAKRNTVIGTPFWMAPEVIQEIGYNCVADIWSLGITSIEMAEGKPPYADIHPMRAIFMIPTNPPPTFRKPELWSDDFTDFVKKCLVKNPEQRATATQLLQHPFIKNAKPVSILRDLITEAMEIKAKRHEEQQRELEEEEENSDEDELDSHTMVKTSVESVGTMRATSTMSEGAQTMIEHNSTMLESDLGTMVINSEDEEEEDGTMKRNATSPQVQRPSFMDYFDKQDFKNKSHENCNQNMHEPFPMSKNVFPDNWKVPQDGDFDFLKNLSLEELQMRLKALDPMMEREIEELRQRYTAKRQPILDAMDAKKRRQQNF

TYK2 = TYK2 (Homo sapiens, UniProt P29597)
NUAK2 = target: T3, NUAK2 (Homo sapiens, UniProt Q9H093)
T3 sequence (Q9H093 1-628): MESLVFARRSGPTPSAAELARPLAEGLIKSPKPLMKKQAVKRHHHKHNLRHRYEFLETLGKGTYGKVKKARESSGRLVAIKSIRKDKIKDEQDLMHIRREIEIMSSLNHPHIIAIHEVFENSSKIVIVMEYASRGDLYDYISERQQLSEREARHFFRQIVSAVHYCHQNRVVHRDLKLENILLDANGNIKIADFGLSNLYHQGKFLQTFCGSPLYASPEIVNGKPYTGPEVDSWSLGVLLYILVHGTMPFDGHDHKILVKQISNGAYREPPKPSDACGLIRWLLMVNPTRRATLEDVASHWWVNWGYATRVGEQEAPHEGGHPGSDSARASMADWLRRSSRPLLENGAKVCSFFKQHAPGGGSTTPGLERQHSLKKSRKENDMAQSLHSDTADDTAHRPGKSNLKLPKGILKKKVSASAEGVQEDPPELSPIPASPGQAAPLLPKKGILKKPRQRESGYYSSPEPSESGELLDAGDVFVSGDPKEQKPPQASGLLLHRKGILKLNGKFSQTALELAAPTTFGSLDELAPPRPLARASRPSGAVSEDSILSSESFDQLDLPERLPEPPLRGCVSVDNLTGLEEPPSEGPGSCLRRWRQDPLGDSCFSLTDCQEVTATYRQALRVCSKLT

CSNK2A1 = CSNK2A1 (Homo sapiens, UniProt P68400)
Sequence of CSNK2A1 (P68400 whole entry): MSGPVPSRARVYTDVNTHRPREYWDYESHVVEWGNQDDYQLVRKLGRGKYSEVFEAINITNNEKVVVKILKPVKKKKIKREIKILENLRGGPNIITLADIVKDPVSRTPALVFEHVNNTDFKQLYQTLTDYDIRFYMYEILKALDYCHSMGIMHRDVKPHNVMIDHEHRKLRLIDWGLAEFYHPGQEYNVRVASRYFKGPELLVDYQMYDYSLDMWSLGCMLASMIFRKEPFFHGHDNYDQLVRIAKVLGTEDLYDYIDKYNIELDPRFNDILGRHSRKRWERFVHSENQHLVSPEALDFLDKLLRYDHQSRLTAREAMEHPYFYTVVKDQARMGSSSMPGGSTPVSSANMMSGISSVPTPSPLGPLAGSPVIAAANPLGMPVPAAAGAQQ

JAK2 = JAK2 (Homo sapiens, UniProt O60674)
Sequence of JAK2 (O60674 whole entry): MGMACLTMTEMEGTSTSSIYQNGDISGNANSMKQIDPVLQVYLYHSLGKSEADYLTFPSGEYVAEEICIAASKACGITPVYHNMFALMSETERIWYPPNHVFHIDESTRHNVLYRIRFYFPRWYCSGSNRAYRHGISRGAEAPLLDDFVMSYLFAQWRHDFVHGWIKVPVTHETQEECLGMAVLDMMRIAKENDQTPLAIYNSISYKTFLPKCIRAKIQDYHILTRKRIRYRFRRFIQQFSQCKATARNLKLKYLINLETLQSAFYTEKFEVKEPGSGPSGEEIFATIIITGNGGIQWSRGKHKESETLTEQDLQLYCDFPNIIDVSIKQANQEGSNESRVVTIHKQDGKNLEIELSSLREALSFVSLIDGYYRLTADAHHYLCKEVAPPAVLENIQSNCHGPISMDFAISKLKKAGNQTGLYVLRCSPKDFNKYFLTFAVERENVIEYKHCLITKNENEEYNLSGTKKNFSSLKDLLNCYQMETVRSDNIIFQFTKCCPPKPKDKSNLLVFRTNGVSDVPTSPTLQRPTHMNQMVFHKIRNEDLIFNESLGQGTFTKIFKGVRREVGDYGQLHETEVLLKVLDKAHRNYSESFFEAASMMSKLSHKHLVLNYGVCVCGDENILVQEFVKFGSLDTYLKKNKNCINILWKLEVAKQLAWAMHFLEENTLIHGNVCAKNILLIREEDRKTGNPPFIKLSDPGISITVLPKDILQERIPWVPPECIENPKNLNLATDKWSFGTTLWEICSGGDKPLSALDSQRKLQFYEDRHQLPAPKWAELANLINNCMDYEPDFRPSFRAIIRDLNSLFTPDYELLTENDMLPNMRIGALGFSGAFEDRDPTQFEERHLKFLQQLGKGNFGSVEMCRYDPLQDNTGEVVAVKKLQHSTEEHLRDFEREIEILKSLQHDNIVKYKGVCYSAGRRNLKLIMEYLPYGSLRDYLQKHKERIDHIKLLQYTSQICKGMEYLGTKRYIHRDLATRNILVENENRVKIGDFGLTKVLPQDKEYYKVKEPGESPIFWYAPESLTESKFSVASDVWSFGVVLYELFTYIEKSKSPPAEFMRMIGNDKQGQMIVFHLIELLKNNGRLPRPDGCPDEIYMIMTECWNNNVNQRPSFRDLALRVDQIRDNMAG

LRRK2 = LRRK2 (Homo sapiens, UniProt Q5S007)
Sequence of LRRK2 (Q5S007 whole entry): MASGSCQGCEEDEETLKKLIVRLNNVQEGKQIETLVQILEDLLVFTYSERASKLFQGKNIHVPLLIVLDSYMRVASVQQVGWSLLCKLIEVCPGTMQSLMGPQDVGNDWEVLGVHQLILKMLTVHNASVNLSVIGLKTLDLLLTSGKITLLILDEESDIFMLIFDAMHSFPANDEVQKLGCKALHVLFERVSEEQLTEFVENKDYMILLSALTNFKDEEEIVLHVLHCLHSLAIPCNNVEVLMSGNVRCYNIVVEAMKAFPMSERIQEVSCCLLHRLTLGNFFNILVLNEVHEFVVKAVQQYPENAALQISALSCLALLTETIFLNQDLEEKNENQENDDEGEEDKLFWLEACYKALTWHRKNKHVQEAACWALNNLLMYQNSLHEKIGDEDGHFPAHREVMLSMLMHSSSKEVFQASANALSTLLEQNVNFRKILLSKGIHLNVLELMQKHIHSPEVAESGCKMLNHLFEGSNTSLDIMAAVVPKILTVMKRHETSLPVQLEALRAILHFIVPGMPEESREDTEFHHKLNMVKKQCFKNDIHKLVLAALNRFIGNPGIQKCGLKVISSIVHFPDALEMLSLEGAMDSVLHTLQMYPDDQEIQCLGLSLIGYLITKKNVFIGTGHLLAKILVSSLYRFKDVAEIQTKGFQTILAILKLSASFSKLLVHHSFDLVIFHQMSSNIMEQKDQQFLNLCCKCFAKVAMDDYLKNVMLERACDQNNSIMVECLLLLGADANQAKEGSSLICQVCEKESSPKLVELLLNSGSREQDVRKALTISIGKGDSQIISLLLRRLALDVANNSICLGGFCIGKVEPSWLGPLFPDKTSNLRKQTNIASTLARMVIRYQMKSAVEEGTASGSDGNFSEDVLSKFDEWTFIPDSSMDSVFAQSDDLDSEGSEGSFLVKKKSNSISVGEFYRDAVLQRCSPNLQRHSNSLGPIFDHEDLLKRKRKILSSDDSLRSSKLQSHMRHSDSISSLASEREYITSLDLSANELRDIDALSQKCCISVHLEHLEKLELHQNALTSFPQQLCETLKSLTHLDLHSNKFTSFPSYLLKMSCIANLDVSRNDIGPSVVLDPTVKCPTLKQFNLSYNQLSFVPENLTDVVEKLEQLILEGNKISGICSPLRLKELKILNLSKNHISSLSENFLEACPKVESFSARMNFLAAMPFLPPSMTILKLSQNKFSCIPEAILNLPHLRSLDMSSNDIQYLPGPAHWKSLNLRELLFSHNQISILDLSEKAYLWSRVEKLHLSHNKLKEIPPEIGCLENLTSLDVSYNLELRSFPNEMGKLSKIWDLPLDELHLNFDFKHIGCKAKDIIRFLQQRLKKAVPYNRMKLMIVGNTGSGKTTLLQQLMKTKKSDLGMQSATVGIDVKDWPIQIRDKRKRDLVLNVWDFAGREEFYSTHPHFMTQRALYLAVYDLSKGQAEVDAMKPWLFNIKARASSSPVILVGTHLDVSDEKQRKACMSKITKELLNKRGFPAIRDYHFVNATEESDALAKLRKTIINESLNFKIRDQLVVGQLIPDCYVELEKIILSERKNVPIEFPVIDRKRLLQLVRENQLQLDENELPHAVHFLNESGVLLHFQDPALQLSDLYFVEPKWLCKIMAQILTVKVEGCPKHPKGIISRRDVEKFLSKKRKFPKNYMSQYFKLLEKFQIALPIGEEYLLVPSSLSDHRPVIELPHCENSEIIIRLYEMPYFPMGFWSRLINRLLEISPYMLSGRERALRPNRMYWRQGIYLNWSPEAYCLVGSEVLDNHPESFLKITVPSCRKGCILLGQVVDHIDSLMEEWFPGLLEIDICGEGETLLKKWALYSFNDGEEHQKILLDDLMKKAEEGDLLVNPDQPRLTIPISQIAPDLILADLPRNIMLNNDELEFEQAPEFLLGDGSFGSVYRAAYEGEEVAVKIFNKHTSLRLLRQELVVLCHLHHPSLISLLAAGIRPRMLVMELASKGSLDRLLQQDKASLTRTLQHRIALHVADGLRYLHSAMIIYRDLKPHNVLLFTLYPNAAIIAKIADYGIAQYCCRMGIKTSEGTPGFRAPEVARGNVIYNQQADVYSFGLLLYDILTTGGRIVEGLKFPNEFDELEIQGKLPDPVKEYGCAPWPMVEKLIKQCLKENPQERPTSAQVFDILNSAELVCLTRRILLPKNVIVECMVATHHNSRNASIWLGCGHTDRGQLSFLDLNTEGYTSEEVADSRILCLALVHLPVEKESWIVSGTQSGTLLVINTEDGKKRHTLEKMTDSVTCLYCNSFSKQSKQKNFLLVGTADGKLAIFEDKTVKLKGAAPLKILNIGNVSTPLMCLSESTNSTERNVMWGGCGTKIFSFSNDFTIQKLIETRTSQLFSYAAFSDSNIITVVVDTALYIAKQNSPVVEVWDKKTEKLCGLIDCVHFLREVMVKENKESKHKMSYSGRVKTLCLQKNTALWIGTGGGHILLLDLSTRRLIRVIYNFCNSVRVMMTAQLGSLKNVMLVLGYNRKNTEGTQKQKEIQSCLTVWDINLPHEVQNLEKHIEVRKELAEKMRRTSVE

RIOK2 = RIOK2 (Homo sapiens, UniProt Q9BVS4)
LRRK2 (G2019S) = LRRK2 (G2019S) (Homo sapiens, UniProt Q5S007, G2019S)
Sequence of LRRK2 (G2019S) (Q5S007 whole entry G2019S): as the sequence (Q5S007 whole entry) above, with G2019S counted along it

BMPR1B = BMPR1B (Homo sapiens, UniProt O00238)
Sequence of BMPR1B (O00238 whole entry): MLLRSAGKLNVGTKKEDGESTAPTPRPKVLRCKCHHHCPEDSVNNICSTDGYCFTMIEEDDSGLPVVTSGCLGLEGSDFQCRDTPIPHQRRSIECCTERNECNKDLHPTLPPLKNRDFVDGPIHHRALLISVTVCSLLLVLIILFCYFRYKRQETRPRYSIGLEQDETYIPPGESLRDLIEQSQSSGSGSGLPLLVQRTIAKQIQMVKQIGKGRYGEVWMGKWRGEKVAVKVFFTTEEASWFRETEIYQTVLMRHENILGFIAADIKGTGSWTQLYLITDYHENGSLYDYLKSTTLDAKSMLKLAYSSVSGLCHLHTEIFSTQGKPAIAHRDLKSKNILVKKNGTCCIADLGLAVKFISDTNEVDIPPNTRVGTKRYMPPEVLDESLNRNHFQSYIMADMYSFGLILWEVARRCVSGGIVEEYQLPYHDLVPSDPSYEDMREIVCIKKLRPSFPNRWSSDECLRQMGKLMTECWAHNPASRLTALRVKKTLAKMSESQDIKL

Q: What does the source list for `C[C@H](NC(=O)c1c[nH]c2ncc(C3CC3)nc12)C(C)(C)C` [A1, UNC-BE4-017]?
A: Compound A1 PoC (JAK3): 0.7%; Compound A1 PoC (STK3 (MST2)): 0%; Compound A1 PoC (TYK2): 6.9%; Compound A1 PoC (NUAK2): 1.2%; Compound A1 PoC (CSNK2A1): 0%; Compound A1 PoC (JAK2): 0.4%; Compound A1 PoC (LRRK2): 2.1%; Compound A1 PoC (RIOK2): 0%; Compound A1 PoC (LRRK2 (G2019S)): 7.5%; Compound A1 PoC (BMPR1B): 1.8%
